Laboratory results reported in ChEMBL document CHEMBL3885861, “Open TG-GATES”.

Species on record: Rattus norvegicus
Assay: Open TG-GATES - Regimen: Daily Repeat
Format: toxicity, organism-based, Sprague-Dawley
Design: regimen Daily Repeat, gender Male, age 6 weeks
Settings: in vivo, po, route gavage; for APTT / Bas / Eos / Fbg / Hb / Ht / Lym / MCH / MCHC / MCV / Mono / Neu / PT / Plat / RBC / Ret / WBC: tissue Blood; for KIDNEY_L / KIDNEY_R / KIDNEY_TOTAL: tissue Kidney; for LIVER: tissue Liver; for A/G / ALP / ALT / AST / BUN / CRE / Ca / Cl / DBIL / GLC / IP / K / LDH / Na / PL / RALB / TBIL / TC / TG / TP / gamma-GTP: tissue Plasma
[1] = 0 mg/kg, 72 h, dose level Control, time 3 day
[2] = 0 mg/kg, […], dose level Control, time 7 day
[3] = 0 mg/kg, […], dose level Control, time 14 day
[4] = 0 mg/kg, […], dose level Control, time 28 day
[5] = 50 mg/kg, 72 h, dose level Low, time 3 day
[6] = 50 mg/kg, […], dose level Low, time 7 day
[7] = 50 mg/kg, […], dose level Low, time 14 day
[8] = 50 mg/kg, […], dose level Low, time 28 day

## CN1C(=O)OC(C)(C)C1=O [TRIMETHADIONE]
[1]
  TERMINAL_BW: 243.9 g
  APTT: 17 s
  Bas: 0%
  Eos: 0.8%
  Fbg: 265 mg/dL
  Hb: 13.7 g/dL
  Ht: 41%
  Lym: 79.8%
  MCH: 21.4 pg
  MCHC: 33.4%
  MCV: 64.2 fL
  Mono: 2.6%
  Neu: 16.4%
  PT: 13.3 s
  Plat: 131 x10_4/uL
  RBC: 639.2 x10_4/ul
  Ret: 7.2%
  WBC: 85.5 x10_2/uL
  KIDNEY_L: 1 g
  KIDNEY_R: 1 g
  KIDNEY_TOTAL: 2 g
  LIVER: 11.2 g
  A/G: 0.8
  ALP: 1967.6 IU/L
  ALT: 47.4 IU/L
  AST: 78 IU/L
  BUN: 15 mg/dL
  CRE: 0.2 mg/dL
  Ca: 11.2 mg/dL
  Cl: 106 meq/L
  DBIL: 0.006 mg/dL
  GLC: 180.6 mg/dL
  IP: 7 mg/dL
  K: 4.6 meq/L
  LDH: 109.4 IU/L
  Na: 141.6 meq/L
  PL: 166.6 mg/dL
  RALB: 2.6 g/dL
  TBIL: 0.05 mg/dL
  TC: 83.6 mg/dL
  TG: 141.8 mg/dL
  TP: 5.7 g/dL
  gamma-GTP: 1 IU/L
[2]
  TERMINAL_BW: 282.3 g
  APTT: 17.7 s
  Bas: 0.6%
  Eos: 1%
  Fbg: 263.8 mg/dL
  Hb: 13.8 g/dL
  Ht: 41%
  Lym: 79.4%
  MCH: 21.4 pg
  MCHC: 33.6%
  MCV: 63.9 fL
  Mono: 2.4%
  Neu: 16.4%
  PT: 13.9 s
  Plat: 123.3 x10_4/uL
  RBC: 641.8 x10_4/ul
  Ret: 5.8%
  WBC: 89.3 x10_2/uL
  KIDNEY_L: 1.1 g
  KIDNEY_R: 1.1 g
  KIDNEY_TOTAL: 2.3 g
  LIVER: 12.5 g
  A/G: 0.8
  ALP: 1722.8 IU/L
  ALT: 38.2 IU/L
  AST: 67.4 IU/L
  BUN: 16.8 mg/dL
  CRE: 0.2 mg/dL
  Ca: 11 mg/dL
  Cl: 105.2 meq/L
  DBIL: 0.01 mg/dL
  GLC: 191.8 mg/dL
  IP: 6.9 mg/dL
  K: 4.1 meq/L
  LDH: 107.8 IU/L
  Na: 144 meq/L
  PL: 165.4 mg/dL
  RALB: 2.6 g/dL
  TBIL: 0.052 mg/dL
  TC: 85.6 mg/dL
  TG: 109 mg/dL
  TP: 5.8 g/dL
  gamma-GTP: 1 IU/L
[3]
  TERMINAL_BW: 333.6 g
  APTT: 19.5 s
  Bas: 0.4%
  Eos: 1.2%
  Fbg: 284.6 mg/dL
  Hb: 14.9 g/dL
  Ht: 43.9%
  Lym: 77.8%
  MCH: 20.8 pg
  MCHC: 33.9%
  MCV: 61.2 fL
  Mono: 2%
  Neu: 18.6%
  PT: 13.4 s
  Plat: 127.4 x10_4/uL
  RBC: 719 x10_4/ul
  Ret: 4.4%
  WBC: 99.3 x10_2/uL
  KIDNEY_L: 1.2 g
  KIDNEY_R: 1.2 g
  KIDNEY_TOTAL: 2.4 g
  LIVER: 14.3 g
  A/G: 0.8
  ALP: 1703.8 IU/L
  ALT: 42 IU/L
  AST: 73.8 IU/L
  BUN: 17.2 mg/dL
  CRE: 0.2 mg/dL
  Ca: 10.8 mg/dL
  Cl: 107.2 meq/L
  DBIL: 0.004 mg/dL
  GLC: 208.2 mg/dL
  IP: 6.8 mg/dL
  K: 3.9 meq/L
  LDH: 98.8 IU/L
  Na: 145.6 meq/L
  PL: 164.6 mg/dL
  RALB: 2.7 g/dL
  TBIL: 0.042 mg/dL
  TC: 80.8 mg/dL
  TG: 128.8 mg/dL
  TP: 6 g/dL
  gamma-GTP: 1 IU/L
[4]
  TERMINAL_BW: 429.2 g
  APTT: 17.5 s
  Bas: 0%
  Eos: 1.2%
  Fbg: 265.2 mg/dL
  Hb: 15.4 g/dL
  Ht: 44.4%
  Lym: 78.4%
  MCH: 19.8 pg
  MCHC: 34.8%
  MCV: 57.1 fL
  Mono: 1.6%
  Neu: 18.2%
  PT: 13.7 s
  Plat: 109.9 x10_4/uL
  RBC: 778.2 x10_4/ul
  Ret: 2.6%
  WBC: 114 x10_2/uL
  KIDNEY_L: 1.5 g
  KIDNEY_R: 1.5 g
  KIDNEY_TOTAL: 2.9 g
  LIVER: 16.8 g
  A/G: 0.8
  ALP: 1156.4 IU/L
  ALT: 35 IU/L
  AST: 62.6 IU/L
  BUN: 15 mg/dL
  CRE: 0.2 mg/dL
  Ca: 10.8 mg/dL
  Cl: 105.6 meq/L
  DBIL: 0.004 mg/dL
  GLC: 183.8 mg/dL
  IP: 6 mg/dL
  K: 4 meq/L
  LDH: 64.2 IU/L
  Na: 142.6 meq/L
  PL: 159.8 mg/dL
  RALB: 2.8 g/dL
  TBIL: 0.048 mg/dL
  TC: 73.6 mg/dL
  TG: 188.4 mg/dL
  TP: 6.3 g/dL
  gamma-GTP: 1 IU/L
[5]
  TERMINAL_BW: 239.4 g
  APTT: 17.8 s
  Bas: 0%
  Eos: 1%
  Fbg: 290.4 mg/dL
  Hb: 13.8 g/dL
  Ht: 41%
  Lym: 74.8%
  MCH: 21.2 pg
  MCHC: 33.6%
  MCV: 63.2 fL
  Mono: 3%
  Neu: 20.8%
  PT: 13 s
  Plat: 127.3 x10_4/uL
  RBC: 649 x10_4/ul
  Ret: 6.9%
  WBC: 101.6 x10_2/uL
  KIDNEY_L: 1 g
  KIDNEY_R: 1 g
  KIDNEY_TOTAL: 2 g
  LIVER: 11.2 g
  A/G: 0.9
  ALP: 1701.8 IU/L
  ALT: 40.4 IU/L
  AST: 73.8 IU/L
  BUN: 15.2 mg/dL
  CRE: 0.2 mg/dL
  Ca: 11.1 mg/dL
  Cl: 106.4 meq/L
  DBIL: 0.008 mg/dL
  GLC: 178.4 mg/dL
  IP: 6.8 mg/dL
  K: 4.7 meq/L
  LDH: 87.2 IU/L
  Na: 141.6 meq/L
  PL: 166 mg/dL
  RALB: 2.6 g/dL
  TBIL: 0.05 mg/dL
  TC: 83 mg/dL
  TG: 123.8 mg/dL
  TP: 5.7 g/dL
  gamma-GTP: 1 IU/L
[6]
  TERMINAL_BW: 283.2 g
  APTT: 18.9 s
  Bas: 0%
  Eos: 1.2%
  Fbg: 255.8 mg/dL
  Hb: 13.9 g/dL
  Ht: 41.1%
  Lym: 74.6%
  MCH: 21.1 pg
  MCHC: 33.9%
  MCV: 62.2 fL
  Mono: 2.2%
  Neu: 21.8%
  PT: 13.7 s
  Plat: 137 x10_4/uL
  RBC: 660.4 x10_4/ul
  Ret: 5.5%
  WBC: 92.6 x10_2/uL
  KIDNEY_L: 1.2 g
  KIDNEY_R: 1.2 g
  KIDNEY_TOTAL: 2.4 g
  LIVER: 13.1 g
  A/G: 0.8
  ALP: 1932.2 IU/L
  ALT: 44.4 IU/L
  AST: 76.8 IU/L
  BUN: 16.6 mg/dL
  CRE: 0.2 mg/dL
  Ca: 10.9 mg/dL
  Cl: 105.4 meq/L
  DBIL: 0.006 mg/dL
  GLC: 187.8 mg/dL
  IP: 7 mg/dL
  K: 4.2 meq/L
  LDH: 79.6 IU/L
  Na: 143 meq/L
  PL: 158 mg/dL
  RALB: 2.6 g/dL
  TBIL: 0.046 mg/dL
  TC: 75 mg/dL
  TG: 113.6 mg/dL
  TP: 5.8 g/dL
  gamma-GTP: 1.2 IU/L
[7]
  TERMINAL_BW: 331.1 g
  APTT: 21.8 s
  Bas: 0.2%
  Eos: 1%
  Fbg: 271.2 mg/dL
  Hb: 14.9 g/dL
  Ht: 43.7%
  Lym: 76%
  MCH: 20.9 pg
  MCHC: 34.2%
  MCV: 61.3 fL
  Mono: 2.2%
  Neu: 20.6%
  PT: 13.4 s
  Plat: 118 x10_4/uL
  RBC: 712.8 x10_4/ul
  Ret: 4.1%
  WBC: 104.6 x10_2/uL
  KIDNEY_L: 1.3 g
  KIDNEY_R: 1.3 g
  KIDNEY_TOTAL: 2.6 g
  LIVER: 13.8 g
  A/G: 0.8
  ALP: 1421.4 IU/L
  ALT: 40.4 IU/L
  AST: 71.2 IU/L
  BUN: 16.2 mg/dL
  CRE: 0.2 mg/dL
  Ca: 10.7 mg/dL
  Cl: 105.2 meq/L
  DBIL: 0.002 mg/dL
  GLC: 182.6 mg/dL
  IP: 6.9 mg/dL
  K: 4.3 meq/L
  LDH: 131.4 IU/L
  Na: 144.4 meq/L
  PL: 159 mg/dL
  RALB: 2.7 g/dL
  TBIL: 0.04 mg/dL
  TC: 72.4 mg/dL
  TG: 112.8 mg/dL
  TP: 6 g/dL
  gamma-GTP: 1 IU/L
[8]
  TERMINAL_BW: 426.4 g
  APTT: 19.5 s
  Bas: 0.4%
  Eos: 1.4%
  Fbg: 257.6 mg/dL
  Hb: 15.7 g/dL
  Ht: 45.3%
  Lym: 80.2%
  MCH: 19.8 pg
  MCHC: 34.6%
  MCV: 57.3 fL
  Mono: 2%
  Neu: 15.4%
  PT: 13.9 s
  Plat: 108.7 x10_4/uL
  RBC: 789.4 x10_4/ul
  Ret: 2.4%
  WBC: 118.6 x10_2/uL
  KIDNEY_L: 1.5 g
  KIDNEY_R: 1.5 g
  KIDNEY_TOTAL: 3 g
  LIVER: 16.2 g
  A/G: 0.8
  ALP: 1126.4 IU/L
  ALT: 33.8 IU/L
  AST: 63.8 IU/L
  BUN: 16.6 mg/dL
  CRE: 0.3 mg/dL
  Ca: 10.7 mg/dL
  Cl: 104 meq/L
  DBIL: 0.006 mg/dL
  GLC: 180.2 mg/dL
  IP: 5.3 mg/dL
  K: 4.3 meq/L
  LDH: 69.8 IU/L
  Na: 142 meq/L
  PL: 162 mg/dL
  RALB: 2.8 g/dL
  TBIL: 0.042 mg/dL
  TC: 73.6 mg/dL
  TG: 186.6 mg/dL
  TP: 6.2 g/dL
  gamma-GTP: 1.2 IU/L
